These results are taken from US20250120951A1, “CLEMIZOLE FORMULATION” (EPYGENIX THERAPEUTICS, INC., priority 2021, published 2025).

“And” between values parts separate entries of the source, which are not always exact repeats. Equal entries are not always repeated. Structures can show the parent of a compound that is named as a salt. Where two headings read alike, the source gives them in different places.

By solubility is commonly meant the concentration that dissolves in the medium under given conditions.

A short description of data set [1]: Excipient compatibility: clemizole HCl assay and total related substances, 14 days at 50° C. (Example 4). The format is physicochemical. As for the experimental part: In an example, various excipients were examined at the 14-day time point (50° C.) to guide the decision on the choice of excipients to be used during formulation development. Table 5 below illustrates the stability of clemizole HCl at day 14 following incubation in the various formulations listed.
However, due to the poor solubility of ethyl parahydroxybenzoate, either a solubilizer such as PEG400, or a soluble form of ethyl parahydroxybenzoate, such as the sodium salt, would be required. Glycerol was compatible with clemizole HCl and may be used to improve the taste formulation.

Data set [2] is described as follows: Solubility testing for clemizole HCl in solvent systems (Example 1). The format is physicochemical. As for the experimental part:
Solubility testing for clemizole HCl in a compatible solvent system was conducted to identify a buffer system that solubilized the required concentration of clemizole HCl without any precipitation. […] Actual clemizole HCl solubility values in each of the solvent systems are described in Table 1.

As to `Clc1ccc(Cn2c(CN3CCCC3)nc3ccccc32)cc1` [clemizole HCl], in data set [1] (50° C., 14 day, mean), the “Assay Results (%) 50° C., 14 day Mean” value stood at 100.9%. The “Assay Results (%) 50° C., 14 day” value in data set [1] (50° C., 14 day, single replicates, listed as API only, HCl) was 101.1% and 100.7%. For the same compound, the “Assay Results (%) Initial Mean” value in data set [1] (Initial, mean) came out at 100.5%. Besides, the “Assay Results (%) Initial” value in data set [1] (Initial, single replicates, listed as API only, HCl) is 100.0% and 101.0%. The solubility in data set [2] (0.1 M HCl, simulated gastric fluid, 0.1M HCl 100% w/w, read-out: Actual Solubility) is 11 mg/mL; in data set [2] (Solutol HS15 solution, 40 °C, aqueous with cosolvent or surfactant or cyclodextrin, 20% w/w solution of Solutol HS15 at 40° C., read-out: solubility of clemizole HCl) it was 36 mg/mL; in data set [2] (citrate buffer, pH 4.5, aqueous buffer, pH 4.5 Citrate Buffer 100% w/w, read-out: Actual Solubility) it was 12.7 mg/mL; in data set [2] (citrate buffer, pH 4.5, aqueous with cosolvent or surfactant or cyclodextrin, pH 4.5 Citrate Buffer 79.5 / PEG400 20.0 / Sodium ascorbate 0.5 % w/w, read-out: Actual Solubility) it was 9.29 mg/mL; in data set [2] (citrate buffer, pH 4.5, aqueous with cosolvent or surfactant or cyclodextrin, pH 4.5 Citrate Buffer 80.0 / Glycerol 20.0 % w/w, read-out: Actual Solubility), 13.5 mg/mL; in data set [2] (citrate buffer, pH 4.5, aqueous with cosolvent or surfactant or cyclodextrin, pH 4.5 Citrate Buffer 80.0 / Propylene glycol 20.0 % w/w, read-out: Actual Solubility), 11.4 mg/mL. Also, the solubility worked out at 29.9 mg/mL in data set [2] (citrate buffer, pH 4.5, aqueous with cosolvent or surfactant or cyclodextrin, pH 4.5 Citrate Buffer 90.0 / 2-Hydroxypropyl-β-cyclodextrin 10.0 % w/w, read-out: Actual Solubility); 21.4 mg/mL in data set [2] (citrate buffer, pH 4.5, aqueous with cosolvent or surfactant or cyclodextrin, pH 4.5 Citrate Buffer 94.5 / Polysorbate 20 5.0 / Sodium ascorbate 0.5 % w/w, read-out: Actual Solubility); 24.6 mg/mL in data set [2] (citrate buffer, pH 4.5, aqueous with cosolvent or surfactant or cyclodextrin, pH 4.5 Citrate Buffer 94.5 / Polysorbate 80 5.0 / Sodium ascorbate 0.5 % w/w, read-out: Actual Solubility); 19.1 mg/mL in data set [2] (citrate buffer, pH 4.5, aqueous with cosolvent or surfactant or cyclodextrin, pH 4.5 Citrate Buffer 95.0 / Cremophor ELP 5.0 % w/w, read-out: Actual Solubility); 19.7 mg/mL in data set [2] (citrate buffer, pH 4.5, aqueous with cosolvent or surfactant or cyclodextrin, pH 4.5 Citrate Buffer 95.0 / Cremophor RH40 5.0 % w/w, read-out: Actual Solubility); 19.8 mg/mL in data set [2] (citrate buffer, pH 4.5, aqueous with cosolvent or surfactant or cyclodextrin, pH 4.5 Citrate Buffer 95.0 / Solutol HS15 5.0 % w/w, read-out: Actual Solubility). Moreover, the solubility in data set [2] (citrate buffer, pH 4.5, aqueous with cosolvent or surfactant or cyclodextrin, pH 4.5 Citrate Buffer 95.0 / TPGS 5.0 % w/w, read-out: Actual Solubility) turned out to be 25.9 mg/mL; in data set [2] (phosphate buffer, pH 6.8, aqueous buffer, pH 6.8 Phosphate Buffer 100% w/w, read-out: Actual Solubility), 0.06 mg/mL; in data set [2] (phosphate buffer, pH 6.8, aqueous with cosolvent or surfactant or cyclodextrin, pH 6.8 Phosphate Buffer 79.5 / PEG400 20.0 / Sodium ascorbate 0.5 % w/w, read-out: Actual Solubility) it was 0.28 mg/mL; in data set [2] (phosphate buffer, pH 6.8, aqueous with cosolvent or surfactant or cyclodextrin, pH 6.8 Phosphate Buffer 80.0 / Glycerol 20.0 % w/w, read-out: Actual Solubility), 0.07 mg/mL; in data set [2] (phosphate buffer, pH 6.8, aqueous with cosolvent or surfactant or cyclodextrin, pH 6.8 Phosphate Buffer 80.0 / Propylene glycol 20.0 % w/w, read-out: Actual Solubility), 0.08 mg/mL. In addition, the “effect of freeze-thawing on clemizole HCl solubility” value in data set [2] (freeze-thawing) was “does not appear to reduce”.
